# Test results published in patent publication US7745441B1, “Urokinase inhibitors” (Wilex AG, priority 1998, dated 2010).
# Where a name gives a salt, the structure may show the parent alone.
# Biological target: T1, sc-urokinase (Homo sapiens, UniProt P00749)
# T1 construct: purchased Ribosepharm GmbH, Haan, Germany
# Test: Inhibition of urokinase (chromogenic substrate, Dixon Ki)
# Type: biochemical
# Settings: Tris buffer pH 8.0, 25° C., substrate Pefachrome UK or Bz-βAla-Gly-Arg-pNA; mean of at least 3 determinations
# Procedure: The Ki values were determined according to Dixon by linear regression using a computer program.
row,SMILES,Ki
1,CC(=O)N1CCN(C(=O)C(Cc2cccc(C(=N)N)c2)NS(=O)(=O)c2c(C(C)C)cc(C(C)C)cc2C(C)C)CC1 (centres unmarked),3.5 µM
2,CC(C)NC(=O)C1CCN(C(=O)C(Cc2cccc(C(=N)N)c2)NS(=O)(=O)c2c(C(C)C)cc(C(C)C)cc2C(C)C)CC1 (centres unmarked),4.2 µM
3,N=C(N)c1cccc(C[C@H](NS(=O)(=O)c2ccc3ccccc3c2)C(=O)N2CCC(C(=O)OCc3ccccc3)CC2)c1,3.9 µM
4,CC1CCN(C(=O)C(Cc2cccc(C(=N)N)c2)NS(=O)(=O)c2c(C(C)C)cc(C(C)C)cc2C(C)C)CC1 (centres unmarked),2.2 µM
5,CC(C)c1cc(C(C)C)c(S(=O)(=O)NC(Cc2cccc(C(=N)N)c2)C(=O)N2CCN(C(=O)N(C)C)CC2)c(C(C)C)c1 (centres unmarked),2.7 µM
6,CNC(=O)C1CCN(C(=O)C(Cc2cccc(C(=N)N)c2)NS(=O)(=O)c2c(C(C)C)cc(C(C)C)cc2C(C)C)CC1 (centres unmarked),4.4 µM
7,CC(C)c1cc(C(C)C)c(S(=O)(=O)NC(Cc2cccc(C(=N)N)c2)C(=O)N2CCN(C(=O)OCc3ccccc3)CC2)c(C(C)C)c1 (centres unmarked),1.9 µM
8,CCOC(=O)C1CCN(C(=O)[C@H](Cc2cccc(C(=N)N)c2)NS(=O)(=O)c2ccc3ccccc3c2)CC1,3.3 µM

# Molecules with a lower Ki, results first:
row,Ki,SMILES
1,0.72 µM,CCOC(=O)C1CCN(C(=O)C(Cc2cccc(C(=N)N)c2)NS(=O)(=O)c2c(C(C)C)cc(C(C)C)cc2C(C)C)CC1 (centres unmarked)
2,0.54 µM,CCOC(=O)N1CCN(C(=O)C(Cc2cccc(C(=N)N)c2)NS(=O)(=O)c2c(C(C)C)cc(C(C)C)cc2C(C)C)CC1 (centres unmarked)
3,1.5 µM,CC(C)c1cc(C(C)C)c(S(=O)(=O)NC(Cc2cccc(C(=N)N)c2)C(=O)N2CCCC(C(=O)NCc3ccccc3)C2)c(C(C)C)c1 (centres unmarked)
4,1.2 µM,CC(C)c1cc(C(C)C)c(S(=O)(=O)NC(Cc2cccc(C(=N)N)c2)C(=O)N2CCCC(C(=O)OCc3ccccc3)C2)c(C(C)C)c1 (centres unmarked)
5,0.79 µM,CC(C)OC(=O)N1CCN(C(=O)C(Cc2cccc(C(=N)N)c2)NS(=O)(=O)c2c(C(C)C)cc(C(C)C)cc2C(C)C)CC1 (centres unmarked)
6,0.49 µM,"CCOC(=O)N1CCN(C(=O)[C@H](Cc2cccc(C(=N)N)c2)NS(=O)(=O)c2c(C(C)C)cc(C(C)C)cc2C(C)C)CC1 [N-α-2,4,6-Triisopropylphenylsulfonyl-(L)-3-amidinophenylalanine-4-ethoxycarbonyl-piperazide hydrochloride]"
